Consider 14 compounds from patent EP0095451A2, “Novel dihydropyridines” (priority 1982, dated 1983).

The subject of test [1] is spontaneously hypertensive rats (SHR) of the Okamoto strain. The experiment in a line: Antihypertensive effect in conscious, unrestrained spontaneously hypertensive rats, oral cumulative dosing. The conditions noted are these: Rattus norvegicus; dose giving 20 per cent reduction of mean arterial BP, by interpolation; oral intubation in methocel, cumulated doses 1, 5 and 25 µmoles/kg at 2 hour intervals. It counts as in vivo. As to the method: The antihypertensive effect of the compounds was tested in conscious, unrestrained spontaneously hypertensive rats (SHR) of the Okamoto strain. The animals had been prepared by prior implantation of indwelling catheters in the abdominal aorta via the femoral artery. Mean arterial blood pressure (MABP) and heart rate were continuously monitored. After a 2 hour control period the compound under study was administered by oral intubation at 2 hour intervals, suspended in methocel solution (5 ml/kg bodyweight). The cumulated doses were 1, 5 and 25)jmoles/kg bodyweight. The antihypertensive response, i.e. the BP'reduction to each dose, was expressed as a percentage of the initial control BP level and plotted against the dose on a logarithmic scale. The dose which would give 20 per cent BP reduction was then determined by interpolation.

Test [2] has as its system isolated portal vein preparation / paced isolated papillary heart muscle preparation. Description: Specificity towards smooth muscle relaxation: isolated portal vein versus paced papillary heart muscle in an organ bath. Set-up: species or system Wistar rats. The conditions noted are these: separation value: averaged difference of -log ED50 portal vein (vasodilatation) and -log ED50 papillary muscle (myocardial depression), transformed into numeric format. The protocol:
The specificity towards smooth muscle relaxation was examined as follows: The isolated portal vein preparation of Wistar rats was mounted in an organ bath together with a paced isolated papillary heart muscle preparation of the same animal. The integrated contractile activity of the portal vein smooth muscle and the peak force amplitude of the papillary, myocardial, preparation were recorded. The respective activities during a 30 min control period were set as 100 per cent and the ensuing activities under the influence of an agent under study were expressed as a percentage thereof. The agent was administered at 10 min intervals and the potency for vasodilatation (-log ED50 of portal vein) and that of myocardial depression (-log ED50 of ^pa^pill- ary muscle) were determined by interpolation from the concentration-effect relationships determined in each experiment. A "separation" value was determined for each compound by averaging the differences of the -log ED50 values for vasodilatation and myocardial depression, respectively, ogtained in the experiments. This logarithmic separation value was transformed into numeric format and entered into table 2.

For the compound `COC(=O)C1=C(C)NC(C)=C(C(=O)OCCSCCN(C)C)C1c1cccc(Cl)c1Cl` (stereo not drawn) [Compound 4, 2,6-dimethyl-4-(2,3-dichlorophenyl)-1,4-dihydropyridine-3,5-dicarboxylic acid-3-[2-(2-N,N-dimethyl-aminoethylthio)ethyl]-5-methyl ester], in test [1], the ED20 came out at 19 µmol/kg. Further, the Ratio heart vasc. in test [2] was 3.

With `COCCOC(=O)C1=C(C)NC(C)=C(C(=O)OCCSCCN(Cc2ccccc2)C(C)C)C1c1cccc(Cl)c1Cl` (stereo not drawn) [Compound 12, 2,6-dimethyl-4-(2,3-dichlorophenyl)-1,4-dihydropyridine--3,5-dicarboxylic acid-3-[2-(2-N-isopropyl-N-benzylethyl-thio)ethyl]-5-(2-methoxyethyl) ester], the ED20 in test [1] was determined as 26 µmol/kg. Moreover, the Ratio heart vasc. in test [2] turned out to be 50. The corresponding values for `CCN(CC)CCSCCOC(=O)C1=C(C)NC(C)=C(C(=O)OC)C1c1cccc(Cl)c1Cl` (stereo not drawn) [Compound 8] are 6 µmol/kg and 4. The corresponding values for `CCOC(=O)C1=C(C)NC(C)=C(C(=O)OCCSCCN(C)C)C1c1cccc(Cl)c1Cl` (stereo not drawn) [Compound 6, 2,6-dimethyl-4-(2,3-dichlorophenyl]-1,4-dihydropyridine--3,5-dicarboxylic acid-3-[2-(2-N,N-dimethylaminoethylthio)-ethyl]-5-ethyl ester] are 25 µmol/kg and 16.

In test [1], `COC(=O)C1=C(C)NC(C)=C(C(=O)OCCSCCN2CCOCC2)C1c1cccc(Cl)c1Cl` (stereo not drawn) [Compound 9, 2,6-dimethyl-4-(2,3-dichlorophenyl)-1,4-dihydropyridine--3,5-dicarboxylic acid-3-[2-(2-morpholinoethylthio)-ethyl]--5-methyl ester] displayed an ED20 of 5 µmol/kg. Further, the Ratio heart vasc. in test [2] was found to be 27. The corresponding values for `CC1=C(C(=O)OCCSCCN(C)C)C(c2cccc(Cl)c2Cl)C(C(=O)OC(C)C)=C(C)N1` (stereo not drawn) [Compound 5, 2,6-dimethyl-4-(2,3-dichlorophenyl)-1,4-dihydropyridine--3,5-dicarboxylic acid-3-[2-(2-N,N-dimethylaminoethylthio)-ethyl)-5-(2-methylethyl)ester] are 20 µmol/kg and 19. The compound `COCCOC(=O)C1=C(C)NC(C)=C(C(=O)OCCSCCN2CCOCC2)C1c1cccc(Cl)c1Cl` (stereo not drawn) [Compound 13, 2,6-dimethyl-4-(2,3-dichlorophenyl)-1,4-dihydropyridine-3,5-dicarboxylic acid-3-[2-(2-morpholinoethyl-thio)ethyl]-5-(2-methoxethyl) ester] returned an ED20 in test [1] of 15 µmol/kg. Further, the Ratio heart vasc. in test [2] stood at 70.

For `COC(=O)C1=C(C)NC(C)=C(C(=O)OCCSCCN(C)C)C1c1cccc(C#N)c1` (stereo not drawn) [Compound 3, 2,6-dimethyl-4-(3-cyanophenyl)-1,4-dihydropyridine-3,5--dicarboxylic acid-3-[2-(2-N,N-dimethylaminoethylthio)ethyl)--5-methyl ester], the ED20 in test [1] was 50 µmol/kg. Besides, the Ratio heart vasc. in test [2] stood at 18.

Take `COC(=O)C1=C(C)NC(C)=C(C(=O)OC)C1c1ccccc1[N+](=O)[O-]` [Nifedipine, 2,6-dimethyl-4-(2-nitrophenyl)-1,4-dihydropyridine-3,5-dicarboxylic acid-3,5-dimethylester, reference compound]: the ED20 in test [1] worked out at 5 µmol/kg. Moreover, the Ratio heart vasc. in test [2] was 15.

Regarding `COC(=O)C1=C(C)NC(C)=C(C(=O)OCCSCCN(Cc2ccccc2)C(C)C)C1c1cccc(Cl)c1Cl` (stereo not drawn) [Compound 10], the ED20 in test [1] turned out to be 9 µmol/kg. Besides, the Ratio heart vasc. in test [2] worked out at 22. Turning to `COC(=O)C1=C(C)NC(C)=C(C(=O)OCCSCCCN(C)C)C1c1cccc(Cl)c1Cl` (stereo not drawn) [Compound 11, 2,6-dimethyl-4-(2,3-dichlorophenyl)-1,4-dihydropyridine--3,5-dicarboxylic acid-3-[2-(3-N,N-dimethylaminopropylthio)-ethyl]-5-methyl ester], the Ratio heart vasc. in test [2] is reported as 3. In turn, `COCCOC(=O)C1=C(C)NC(C)=C(C(=O)OCCSCCN(C)C)C1c1cccc(Cl)c1Cl` (stereo not drawn) [Compound 7, 2,6-dimethyl-4-(2,3-dichlorophenyl)-1,4-dihydropyridine--3,5-dicarboxylic acid-3-[2-(2-N,N-dimethylaminoetylthio-ethyl]-5-12-methoxyethyl) ester] gave an ED20 in test [1] of 56 µmol/kg. Further, in test [2], the Ratio heart vasc. came to 20.

Compound `COC(=O)C1=C(C)NC(C)=C(C(=O)OCCSCCN(C)C)C1c1cccc([N+](=O)[O-])c1` (stereo not drawn) [Compound 1, 2,6-dimethyl-4-(3-nitrophenyl)-1,4-dihydropyridine-3,5--dicarboxylic acid-3-[2-(N,N-dimethylaminoethylthio)ethyl]--5-methyl ester] had an ED20 in test [1] of 16 µmol/kg. Besides, the Ratio heart vasc. in test [2] is given as 30.

On to `COC(=O)C1=C(C)NC(C)=C(C(=O)OCCSCCN(C)C)C1c1ccccc1[N+](=O)[O-]` (stereo not drawn) [Compound 2, 2,6-dimethyl-4-(2-nitrophenyl)-1,4-dihydropyridine-3,5--dicarboxylic acid-3-[2-(2-N,N-dimethylaminoethylthio)ethyl]--5-methyl ester], for which, in test [1], the ED20 was determined as 30 µmol/kg. Besides, in test [2], the Ratio heart vasc. amounted to 5.
